From PubChem BioAssay AID1963428 (Molecular Pharmacology Branch, DTP, NCI, 2024)

System: 171881-019-R-J1-PDC complex spheroid growth, % test/control
Test: Anticancer human tumor 171881-019-R-J1-PDC patient-derived invasive breast carcinoma cell line growth inhibition [Asc]
Settings: for IC50: curve of first compound; for viability, T/C: stronger effect = lower value
Summary of the method: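 Spheroid model: tumor line + HUVEC + hMSC. Single agents and combinations; top conc. at/near clinical Cmax (10 microM if undetermined), half-log dilutions. DMSO stocks at 800-fold test concentration.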

[1] = second compound 0.01 µM, first compound 0.0316 µM
[2] = second compound 0.01 µM, first compound 0.1 µM
[3] = second compound 0.01 µM, first compound 0.316 µM
[4] = second compound 0.01 µM, first compound 1 µM
[5] = second compound 0.01 µM, first compound 3.16 µM
[6] = second compound 0.01 µM, first compound 10 µM
[7] = second compound 0.0316 µM, first compound 0.0316 µM
[8] = second compound 0.0316 µM, first compound 0.1 µM
[9] = second compound 0.0316 µM, first compound 0.316 µM
[10] = second compound 0.0316 µM, first compound 1 µM
[11] = second compound 0.0316 µM, first compound 3.16 µM
[12] = second compound 0.0316 µM, first compound 10 µM
[13] = second compound 0.1 µM, first compound 0.0316 µM
[14] = second compound 0.1 µM, first compound 0.1 µM
[15] = second compound 0.1 µM, first compound 0.316 µM
[16] = second compound 0.1 µM, first compound 1 µM
[17] = second compound 0.1 µM, first compound 3.16 µM
[18] = second compound 0.1 µM, first compound 10 µM
[19] = second compound 0.316 µM, first compound 0.0316 µM
[20] = second compound 0.316 µM, first compound 0.1 µM
[21] = second compound 0.316 µM, first compound 0.316 µM
[22] = second compound 0.316 µM, first compound 1 µM
[23] = second compound 0.316 µM, first compound 3.16 µM
[24] = second compound 0.316 µM, first compound 10 µM
[25] = second compound 1 µM, first compound 0.0316 µM
[26] = second compound 1 µM, first compound 0.1 µM
[27] = second compound 1 µM, first compound 0.316 µM
[28] = second compound 1 µM, first compound 1 µM
[29] = second compound 1 µM, first compound 3.16 µM
[30] = second compound 1 µM, first compound 10 µM
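Wherever viability, T/C is given: spheroids exposed to compounds for 7 days.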

Work on `C#Cc1c(F)ccc2cc(O)cc(-c3ncc4c(N5CC6CCC(C5)N6)nc(OCC56CCCN5CC(F)C6)nc4c3F)c12` (stereo not given) + CNC(C)C(=O)NC1CN(S(=O)(=O)c2cccc(S(=O)(=O)N3CCC4CCC(C(=O)NC(c5ccccc5)c5ccccc5)N4C(=O)C(NC(=O)C(C)NC)C3)c2)CCC2CCC(C(=O)NC(c3ccccc3)c3ccccc3)N2C1=O yielded an IC50 (second compound 0.01 µM) greater than 10 µM, an IC50 (second compound 0.0316 µM) greater than 10 µM and an IC50 (second compound 0.1 µM) greater than 10 µM. The IC50 (second compound 0.316 µM) was greater than 10 µM, the IC50 (second compound 1 µM) was greater than 10 µM and the viability, T/C [1] was 98%. The viability, T/C [2] was 116%, the viability, T/C [3] was 125% and the viability, T/C [4] was 187%. The viability, T/C [5] was 254%, the viability, T/C [6] was 248% and the viability, T/C [7] was 107%. The viability, T/C [8] was 107%, the viability, T/C [9] was 131% and the viability, T/C [10] was 216%. For the same compound, the viability, T/C [11] was 261%, the viability, T/C [12] was 255% and the viability, T/C [13] was 105%. The viability, T/C [14] was 122%, the viability, T/C [15] was 134% and the viability, T/C [16] was 168%. The viability, T/C [17] was 247%, the viability, T/C [18] was 245% and the viability, T/C [19] was 102%. For the same compound, the viability, T/C [20] was 109%, the viability, T/C [21] was 109% and the viability, T/C [22] was 170%. For the same compound, the viability, T/C [23] was 214%, the viability, T/C [24] was 230% and the viability, T/C [25] was 99.3%. The viability, T/C [26] was 109%, the viability, T/C [27] was 138% and the viability, T/C [28] was 170%. It also gave a viability, T/C [29] of 219% and a viability, T/C [30] of 235%.
Compound `C=C(F)C(=O)N1CCN(c2nc(OCC3CCCN3C)nc3c2CCN(c2cccc4cccc(Cl)c24)C3)CC1CC#N` (stereo not given) + CNC(C)C(=O)NC1CN(S(=O)(=O)c2cccc(S(=O)(=O)N3CCC4CCC(C(=O)NC(c5ccccc5)c5ccccc5)N4C(=O)C(NC(=O)C(C)NC)C3)c2)CCC2CCC(C(=O)NC(c3ccccc3)c3ccccc3)N2C1=O has an IC50 (second compound 0.01 µM) of 5.65 µM, an IC50 (second compound 0.0316 µM) of 5.51 µM and an IC50 (second compound 0.1 µM) of 5.69 µM. The IC50 (second compound 0.316 µM) was 5.54 µM, the IC50 (second compound 1 µM) was 5.41 µM and the viability, T/C [1] was 93.5%. The viability, T/C [2] was 91.3%, the viability, T/C [3] was 95% and the viability, T/C [4] was 101%. The viability, T/C [5] was 113%, the viability, T/C [6] was 1.9% and the viability, T/C [7] was 90%. It also gave a viability, T/C [8] of 88.8%, a viability, T/C [9] of 76.7% and a viability, T/C [10] of 112%. The viability, T/C [11] was 112%, the viability, T/C [12] was 0.82% and the viability, T/C [13] was 95.9%. For the same compound, the viability, T/C [14] was 97.2%, the viability, T/C [15] was 100% and the viability, T/C [16] was 104%. It also gave a viability, T/C [17] of 107%, a viability, T/C [18] of 1.02% and a viability, T/C [19] of 81.3%. It also gave a viability, T/C [20] of 91.1%, a viability, T/C [21] of 86.1% and a viability, T/C [22] of 106%. The viability, T/C [23] was 111%, the viability, T/C [24] was 2.51% and the viability, T/C [25] was 90.3%. The viability, T/C [26] was 84.6%, the viability, T/C [27] was 86.5% and the viability, T/C [28] was 95.5%. For the same compound, the viability, T/C [29] was 106% and the viability, T/C [30] was 1.17%.
